Source: ChEMBL document CHEMBL1221321, “Synthesis and properties of macrolones characterized by two ether bonds in the linker” (Bioorg Med Chem, 2010)
In brackets after ≈: the same amount, converted by molar mass.

Experiments:
[1] = test system: THP-1; test: Cytotoxicity against human THP1 cells after 24 hrs by MTS assay; format: cell-based; settings: THP-1, 24 h
[2] = test system: HepG2; test: Cytotoxicity against human HepG2 cells after 24 hrs by MTS assay; format: cell-based; settings: HepG2, 24 h
[3] = test system: Haemophilus influenzae; test: Antibacterial activity against Haemophilus influenzae ATCC 49247 by broth microdilution method; format: functional
[4] = test system: Streptococcus pyogenes; test: Antibacterial activity against constitutive MLS resistance Streptococcus pyogenes 166 GR-Micro by broth microdilution method; format: functional
[5] = test system: Streptococcus pneumoniae; test: Antibacterial activity against constitutive MLS resistance Streptococcus pneumoniae 58 by broth microdilution method; format: functional
[6] = test system: Streptococcus pyogenes; test: Antibacterial activity against efflux-mediated macrolide-resistance Streptococcus pyogenes 2 by broth microdilution method; format: functional
[7] = test system: Streptococcus pneumoniae; test: Antibacterial activity against efflux-mediated macrolide-resistance Streptococcus pneumoniae Ci137 by broth microdilution method; format: functional
[8] = test system: Staphylococcus aureus; test: Antibacterial activity against efflux-mediated macrolide-resistance Staphylococcus aureus PK1 by broth microdilution method; format: functional
[9] = test system: Streptococcus pyogenes; test: Antibacterial activity against inducible resistance to macrolide, licosamide and streptogramin Streptococcus pyogenes 11 by broth microdilution method; format: functional
[10] = test system: Streptococcus pneumoniae; test: Antibacterial activity against inducible resistance to macrolide and constitutive resistance to lincosamide Streptococcus pneumoniae 134 GR M by broth microdilution method; format: functional
[11] = test system: Staphylococcus aureus; test: Antibacterial activity against inducible resistance to macrolide, licosamide, and streptogramin Staphylococcus aureus 90265/97 by broth microdilution method; format: functional

Row | SMILES | IC50 [1] [µM] | IC50 [2] [µM] | MIC [3] [µg/mL] | MIC [4] [µg/mL] | MIC [5] [µg/mL] | MIC [6] [µg/mL] | MIC ([7]; read-out: MIC) [µg/mL] | MIC [8] [µg/mL] | MIC ([9]; read-out: MIC) [µg/mL] | MIC [10] [µg/mL] | MIC [11] [µg/mL] | MIC [7] [µg/mL] | MIC [9] [µg/mL]
1 | CC[C@H]1OC(=O)[C@H](C)[C@@H](O[C@H]2C[C@@](C)(OC)[C@@H](OCCCOCCCc3ccc4c(c3)c(=O)c(C(=O)O)cn4CC)[C@H](C)O2)[C@H](C)[C@@H](O[C@@H]2O[C@H](C)C[C@H](N(C)C)[C@H]2O)[C@](C)(O)C[C@@H](C)CN(C)[C@H](C)[C@@H](O)[C@]1(C)O | > 50 | > 50 | 1 (≈ 0.94 µM) | ≤ 0.125 | ≤ 0.125 | ≤ 0.125 | ≤ 0.125 | ≤ 0.125 | ≤ 0.125 | ≤ 0.125 | ≤ 0.125 | – | –
2 | CC[C@H]1OC(=O)[C@H](C)[C@@H](O[C@H]2C[C@@](C)(OC)[C@@H](OCCCOCCCCc3ccc4c(c3)c(=O)c(C(=O)O)cn4N(C)C)[C@H](C)O2)[C@H](C)[C@@H](O[C@@H]2O[C@H](C)C[C@H](N(C)C)[C@H]2O)[C@](C)(O)C[C@@H](C)CN(C)[C@H](C)[C@@H](O)[C@]1(C)O | 20 | 42 | 4 (≈ 3.66 µM) | 0.5 (≈ 0.457 µM) | 0.25 (≈ 0.229 µM) | ≤ 0.125 | ≤ 0.125 | ≤ 0.125 | ≤ 0.125 | 0.5 (≈ 0.457 µM) | ≤ 0.125 | – | –
3 | CC[C@H]1OC(=O)[C@H](C)[C@@H](O[C@H]2C[C@@](C)(OC)[C@@H](OCCCOCCCCCc3ccc4c(c3)c(=O)c(C(=O)O)cn4CC)[C@H](C)O2)[C@H](C)[C@@H](O[C@@H]2O[C@H](C)C[C@H](N(C)C)[C@H]2O)[C@](C)(O)C[C@@H](C)CN(C)[C@H](C)[C@@H](O)[C@]1(C)O | 9 | 20 | 2 (≈ 1.83 µM) | 0.25 (≈ 0.229 µM) | ≤ 0.125 | ≤ 0.125 | ≤ 0.125 | ≤ 0.125 | ≤ 0.125 | 0.5 (≈ 0.458 µM) | ≤ 0.125 | – | –
4 | CC[C@H]1OC(=O)[C@H](C)[C@@H](O[C@H]2C[C@@](C)(OC)[C@@H](OCCCOCCCCc3ccc4c(c3)c(=O)c(C(=O)O)cn4CC)[C@H](C)O2)[C@H](C)[C@@H](O[C@@H]2O[C@H](C)C[C@H](N(C)C)[C@H]2O)[C@](C)(O)C[C@@H](C)CN(C)[C@H](C)[C@@H](O)[C@]1(C)O | 22 | 46 | 0.5 (≈ 0.464 µM) | ≤ 0.125 | ≤ 0.125 | ≤ 0.125 | ≤ 0.125 | ≤ 0.125 | ≤ 0.125 | ≤ 0.125 | ≤ 0.125 | – | –
5 | CC[C@H]1OC(=O)[C@H](C)[C@@H](O[C@H]2C[C@@](C)(OC)[C@@H](OCCCOCCCCCc3ccc4c(c3)c(=O)c(C(=O)O)cn4N(C)C)[C@H](C)O2)[C@H](C)[C@@H](O[C@@H]2O[C@H](C)C[C@H](N(C)C)[C@H]2O)[C@](C)(O)C[C@@H](C)CN(C)[C@H](C)[C@@H](O)[C@]1(C)O | 8 | 13 | 1 (≈ 0.903 µM) | 0.25 (≈ 0.226 µM) | ≤ 0.125 | ≤ 0.125 | ≤ 0.125 | ≤ 0.125 | ≤ 0.125 | 0.5 (≈ 0.451 µM) | ≤ 0.125 | – | –
6 | CC[C@H]1OC(=O)[C@H](C)C(=O)[C@H](C)[C@@H](O[C@@H]2O[C@H](C)C[C@H](N(C)C)[C@H]2O)[C@](C)(OC)C[C@@H](C)C(=O)[C@H](C)[C@H]2N(CCCCn3cnc(-c4cccnc4)c3)C(=O)O[C@]12C [TELITHROMYCIN] | – | – | 1 (≈ 1.23 µM) | 16 (≈ 19.7 µM) | 0.25 (≈ 0.308 µM) | 0.5 (≈ 0.616 µM) | 0.5 (≈ 0.616 µM) | 0.125 (≈ 0.154 µM) | ≤ 0.125 | 0.25 (≈ 0.308 µM) | ≤ 0.125 | – | –
7 | CC[C@H]1OC(=O)[C@H](C)[C@@H](O[C@H]2C[C@@](C)(OC)[C@@H](OCCCOCCCc3cc4c5c(c3)c(=O)c(C(=O)O)cn5C(C)(C)CO4)[C@H](C)O2)[C@H](C)[C@@H](O[C@@H]2O[C@H](C)C[C@H](N(C)C)[C@H]2O)[C@](C)(O)C[C@@H](C)CN(C)[C@H](C)[C@@H](O)[C@]1(C)O | 40 | > 50 | 2 (≈ 1.81 µM) | 1 (≈ 0.904 µM) | ≤ 0.125 | – | – | 0.13 (≈ 0.117 µM) | – | ≤ 0.125 | 0.06 (≈ 0.0542 µM) | < 0.02 | < 0.02
8 | CCCCn1cc(C(=O)O)c(=O)c2cc(CCCOCCCO[C@H]3[C@H](C)O[C@@H](O[C@H]4[C@H](C)[C@@H](O[C@@H]5O[C@H](C)C[C@H](N(C)C)[C@H]5O)[C@](C)(O)C[C@@H](C)CN(C)[C@H](C)[C@@H](O)[C@](C)(O)[C@@H](CC)OC(=O)[C@@H]4C)C[C@@]3(C)OC)ccc21 | 27 | 49 | 1 (≈ 0.915 µM) | ≤ 0.125 | ≤ 0.125 | ≤ 0.125 | ≤ 0.125 | ≤ 0.125 | ≤ 0.125 | ≤ 0.125 | ≤ 0.125 | – | –
9 | CC[C@H]1OC(=O)[C@H](C)[C@@H](O[C@H]2C[C@@](C)(OC)[C@@H](OCCCOCCCc3ccc4c(c3)c(=O)c(C(=O)O)cn4CCOC)[C@H](C)O2)[C@H](C)[C@@H](O[C@@H]2O[C@H](C)C[C@H](N(C)C)[C@H]2O)[C@](C)(O)C[C@@H](C)CN(C)[C@H](C)[C@@H](O)[C@]1(C)O | > 50 | > 50 | 2 (≈ 1.83 µM) | ≤ 0.125 | ≤ 0.125 | ≤ 0.125 | ≤ 0.125 | ≤ 0.125 | ≤ 0.125 | ≤ 0.125 | ≤ 0.125 | – | –
10 | CC[C@H]1OC(=O)[C@H](C)[C@@H](O[C@H]2C[C@@](C)(OC)[C@@H](OCCCOCCCc3cc4c5c(c3)c(=O)c(C(=O)O)cn5C(C)(C)OC4)[C@H](C)O2)[C@H](C)[C@@H](O[C@@H]2O[C@H](C)C[C@H](N(C)C)[C@H]2O)[C@](C)(O)C[C@@H](C)CN(C)[C@H](C)[C@@H](O)[C@]1(C)O | 40 | > 50 | 1 (≈ 0.904 µM) | ≤ 0.125 | ≤ 0.125 | ≤ 0.125 | ≤ 0.125 | ≤ 0.125 | ≤ 0.125 | ≤ 0.125 | ≤ 0.125 | – | –
11 | CC[C@H]1OC(=O)[C@H](C)[C@@H](O[C@H]2C[C@@](C)(OC)[C@@H](OCCCOCCCc3ccc4c(c3)c(=O)c(C(=O)O)cn4C(C)C)[C@H](C)O2)[C@H](C)[C@@H](O[C@@H]2O[C@H](C)C[C@H](N(C)C)[C@H]2O)[C@](C)(O)C[C@@H](C)CN(C)[C@H](C)[C@@H](O)[C@]1(C)O | 46 | > 50 | 4 (≈ 3.71 µM) | ≤ 0.125 | ≤ 0.125 | ≤ 0.125 | ≤ 0.125 | ≤ 0.125 | ≤ 0.125 | < 0.125 | ≤ 0.125 | – | –
12 | CC[C@H]1OC(=O)[C@H](C)[C@@H](O[C@H]2C[C@@](C)(OC)[C@@H](OCCCOCCCCc3cc4c5c(c3)c(=O)c(C(=O)O)cn5C(C)(C)CO4)[C@H](C)O2)[C@H](C)[C@@H](O[C@@H]2O[C@H](C)C[C@H](N(C)C)[C@H]2O)[C@](C)(O)C[C@@H](C)CN(C)[C@H](C)[C@@H](O)[C@]1(C)O | 11 | 46 | 1 (≈ 0.893 µM) | 0.5 (≈ 0.446 µM) | ≤ 0.125 | ≤ 0.125 | ≤ 0.125 | ≤ 0.125 | ≤ 0.125 | 0.5 (≈ 0.446 µM) | ≤ 0.125 | – | –
13 | CC[C@H]1OC(=O)[C@H](C)[C@@H](O[C@H]2C[C@@](C)(OC)[C@@H](O)[C@H](C)O2)[C@H](C)[C@@H](O[C@@H]2O[C@H](C)C[C@H](N(C)C)[C@H]2O)[C@](C)(O)C[C@@H](C)CN(C)[C@H](C)[C@@H](O)[C@]1(C)O [AZITHROMYCIN] | – | – | 1 (≈ 1.34 µM) | > 64 | > 64 | 8 (≈ 10.7 µM) | 8 (≈ 10.7 µM) | > 64 | 16 (≈ 21.4 µM) | > 64 | > 64 | – | –
